Assay results: ChEMBL document CHEMBL4219222, “A new class of pyrazolo[5,1-c][1,2,4]triazines as γ-aminobutyric type A (GABAA) receptor subtype ligand: synthesis and pharmacological evaluation” (Bioorg Med Chem, 2018)

What was measured:
[1] = species on record: Bos taurus; experiment: Displacement of [3H]Ro15-1788 from GABAA receptor in bovine cerebral cortex membranes at 10 uM after 90 mins by liquid scintillation counting method relative to control; type: cell membranes; conditions: Membrane
[2] = biological target: GABA A receptor alpha-5/beta-3/gamma-2 (Rattus norvegicus, UniProt P18508+P19969+P63079); experiment: Displacement of [3H]Ro15-1788 from recombinant rat GABAAalpha5/beta3/gamma2 receptor after 90 mins by liquid scintillation counting method; type: protein-complex assay
[3] = Displacement of [3H]Ro15-1788 from GABAA receptor in bovine cerebral cortex membranes after 90 mins by liquid scintillation counting method; type: cell membranes, Bos taurus, Membrane
[4] = biological target: GABA-A receptor; alpha-1/beta-2/gamma-2 (Rattus norvegicus, UniProt P18508+P62813+P63138); experiment: Displacement of [3H]Ro15-1788 from recombinant rat GABAAalpha1/beta2/gamma2 receptor after 90 mins by liquid scintillation counting method; type: protein-complex assay
[5] = species on record: Rattus norvegicus; experiment: Selectivity ratio of Ki for recombinant rat GABAAalpha1/beta2/gamma2 receptor to Ki for recombinant rat GABAAalpha2/beta2/gamma2 receptor
[6] = species on record: Rattus norvegicus; experiment: Displacement of [3H]Ro15-1788 from recombinant rat GABAAalpha3/beta2/gamma2 receptor at 10 uM after 90 mins by liquid scintillation counting method relative to control
[7] = species on record: Rattus norvegicus; experiment: Selectivity ratio of Ki for recombinant rat GABAAalpha5/beta3/gamma2 receptor to Ki for recombinant rat GABAAalpha2/beta2/gamma2 receptor
[8] = Displacement of [3H]Ro15-1788 from recombinant rat GABAAalpha2/beta2/gamma2 receptor after 90 mins by liquid scintillation counting method
[9] = Displacement of [3H]Ro15-1788 from recombinant rat GABAAalpha3/beta2/gamma2 receptor after 90 mins by liquid scintillation counting method
[10] = biological target: GABA A receptor alpha-5/beta-3/gamma-2 (Rattus norvegicus) (UniProt P18508+P19969+P63079); experiment: Displacement of [3H]Ro15-1788 from recombinant rat GABAAalpha5/beta3/gamma2 receptor at 10 uM after 90 mins by liquid scintillation counting method relative to control; type: protein-complex assay
[11] = species on record: Rattus norvegicus; experiment: Displacement of [3H]Ro15-1788 from recombinant rat GABAAalpha2/beta2/gamma2 receptor at 10 uM after 90 mins by liquid scintillation counting method relative to control

GABA-A receptor; alpha-1/beta-2/gamma-2, sequence (P18508 whole entry): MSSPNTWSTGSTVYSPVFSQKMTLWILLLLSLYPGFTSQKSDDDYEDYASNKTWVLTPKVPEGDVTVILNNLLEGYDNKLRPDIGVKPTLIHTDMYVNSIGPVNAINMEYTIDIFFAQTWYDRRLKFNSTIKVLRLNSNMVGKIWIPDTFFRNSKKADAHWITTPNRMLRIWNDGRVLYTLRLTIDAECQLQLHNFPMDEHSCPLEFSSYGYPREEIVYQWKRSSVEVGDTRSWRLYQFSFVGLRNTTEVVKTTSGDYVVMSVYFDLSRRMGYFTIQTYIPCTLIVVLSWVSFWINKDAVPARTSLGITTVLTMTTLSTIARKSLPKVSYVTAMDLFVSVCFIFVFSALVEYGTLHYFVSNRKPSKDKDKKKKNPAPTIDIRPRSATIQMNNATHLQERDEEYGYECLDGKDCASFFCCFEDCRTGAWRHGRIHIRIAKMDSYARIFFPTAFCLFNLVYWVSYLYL
GABA-A receptor; alpha-1/beta-2/gamma-2, sequence (P62813 whole entry): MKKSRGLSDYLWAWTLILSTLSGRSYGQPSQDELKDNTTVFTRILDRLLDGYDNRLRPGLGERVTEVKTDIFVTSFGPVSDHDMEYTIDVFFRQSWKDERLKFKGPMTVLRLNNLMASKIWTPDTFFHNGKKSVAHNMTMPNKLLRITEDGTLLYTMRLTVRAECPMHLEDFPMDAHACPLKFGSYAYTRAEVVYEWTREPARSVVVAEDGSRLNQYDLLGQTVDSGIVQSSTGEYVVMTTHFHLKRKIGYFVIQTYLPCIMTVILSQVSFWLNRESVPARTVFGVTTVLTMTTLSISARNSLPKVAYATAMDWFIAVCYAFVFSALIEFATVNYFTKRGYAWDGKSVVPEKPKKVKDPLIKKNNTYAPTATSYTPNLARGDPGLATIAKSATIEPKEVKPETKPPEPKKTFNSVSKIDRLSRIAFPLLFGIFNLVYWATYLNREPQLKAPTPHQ
GABA-A receptor; alpha-1/beta-2/gamma-2, sequence (P63138 whole entry): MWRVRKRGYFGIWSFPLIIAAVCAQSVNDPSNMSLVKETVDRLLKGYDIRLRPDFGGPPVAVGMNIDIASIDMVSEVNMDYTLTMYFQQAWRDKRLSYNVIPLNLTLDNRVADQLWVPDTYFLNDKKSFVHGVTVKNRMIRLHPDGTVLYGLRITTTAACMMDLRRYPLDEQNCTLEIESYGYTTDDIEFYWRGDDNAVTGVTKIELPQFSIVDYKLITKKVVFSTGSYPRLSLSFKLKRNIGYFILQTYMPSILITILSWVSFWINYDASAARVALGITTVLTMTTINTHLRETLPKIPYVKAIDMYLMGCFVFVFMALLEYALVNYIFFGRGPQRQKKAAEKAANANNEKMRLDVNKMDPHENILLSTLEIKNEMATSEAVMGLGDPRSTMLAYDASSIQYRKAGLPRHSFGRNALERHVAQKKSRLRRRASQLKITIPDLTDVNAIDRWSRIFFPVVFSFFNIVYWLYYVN
GABA A receptor alpha-5/beta-3/gamma-2, sequence (P18508 whole entry): as the sequence (P18508 whole entry) above
GABA A receptor alpha-5/beta-3/gamma-2, sequence (P19969 whole entry): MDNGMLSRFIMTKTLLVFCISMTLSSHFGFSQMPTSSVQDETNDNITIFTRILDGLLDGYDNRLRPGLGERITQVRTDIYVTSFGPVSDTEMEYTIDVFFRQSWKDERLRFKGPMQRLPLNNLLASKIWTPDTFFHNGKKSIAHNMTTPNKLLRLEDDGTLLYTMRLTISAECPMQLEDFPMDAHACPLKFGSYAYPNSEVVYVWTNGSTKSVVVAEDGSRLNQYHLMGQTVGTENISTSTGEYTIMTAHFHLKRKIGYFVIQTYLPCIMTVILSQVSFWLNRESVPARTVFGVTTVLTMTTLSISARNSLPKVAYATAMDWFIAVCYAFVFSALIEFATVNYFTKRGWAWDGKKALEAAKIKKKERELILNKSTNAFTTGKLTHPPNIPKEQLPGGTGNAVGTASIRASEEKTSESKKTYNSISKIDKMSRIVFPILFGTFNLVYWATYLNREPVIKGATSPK
GABA A receptor alpha-5/beta-3/gamma-2, sequence (P63079 whole entry): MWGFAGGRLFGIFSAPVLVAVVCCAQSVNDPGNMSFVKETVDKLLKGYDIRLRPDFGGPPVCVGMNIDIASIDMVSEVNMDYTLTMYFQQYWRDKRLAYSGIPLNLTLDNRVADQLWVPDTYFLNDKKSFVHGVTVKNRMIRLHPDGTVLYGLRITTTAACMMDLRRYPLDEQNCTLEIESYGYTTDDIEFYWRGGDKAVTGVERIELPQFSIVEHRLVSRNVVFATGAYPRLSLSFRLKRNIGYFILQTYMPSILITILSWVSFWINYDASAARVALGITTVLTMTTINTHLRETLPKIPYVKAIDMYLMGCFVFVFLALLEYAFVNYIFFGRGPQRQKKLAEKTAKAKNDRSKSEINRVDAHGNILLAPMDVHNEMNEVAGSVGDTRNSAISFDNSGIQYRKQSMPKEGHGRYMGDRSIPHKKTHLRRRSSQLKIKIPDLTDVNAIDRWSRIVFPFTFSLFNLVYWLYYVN

In the case of `O=c1c(-n2ccnc2)c[nH]c2c(-c3ccccc3)cnn12`, the inhibition [1] is reported as 2%.

Work on `O=c1c(-c2cc[nH]n2)n[nH]c2c(-c3cccc4ccccc34)cnn12` yielded a Ki [2] of 159 nM, a Ki [3] of 77 nM and a Ki [4] of 150 nM.

`O=c1c(-n2cccn2)c[nH]c2c(-c3cccs3)cnn12` gave an inhibition [1] of 13.9%.

In the case of `Cc1ccc(-c2cnn3c(=O)c(-c4cc[nH]n4)n[nH]c23)cc1`, the inhibition [1] is reported as 32%.

Work on `O=c1c(-c2cc[nH]n2)n[nH]c2c(-c3cccs3)cnn12` yielded a Ratio Ki [5] of 7, an inhibition [6] of 28% and a Ki [2] of 662 nM. The Ki [3] was 237 nM, the Ki [4] was 285 nM and the Ratio Ki [7] was 16. For the same compound, the Ki [8] was 41.2 nM.

`O=c1c(-c2cc[nH]n2)c[nH]c2c(-c3cccc4ccccc34)cnn12` showed a Ki [3] of 599 nM.

`O=c1c(-c2cc[nH]n2)c[nH]c2c(-c3ccccc3)cnn12` gave a Ki [3] of 326 nM.

Work on `O=c1c(-c2cc[nH]n2)n[nH]c2c(-c3cccc(C(F)(F)F)c3)cnn12` yielded a Ki [2] of 144 nM, a Ki [3] of 7.2 nM and a Ki [4] of 6.5 nM. For the same compound, the Ki [9] was 501 nM and the Ki [8] was greater than 5000 nM.

`O=c1c(-c2cc[nH]n2)c[nH]c2c(-c3ccccn3)cnn12` gave a Ki [3] of 14.2 nM.

Compound `O=c1c(-c2cc[nH]n2)c[nH]c2c(-n3cccc3)cnn12` has a Ki [3] of 2670 nM.

`COc1ccc(-c2cnn3c(=O)c(-c4cc[nH]n4)n[nH]c23)cc1` showed a Ki [3] of 1610 nM.

In the case of `O=c1c(-c2cc[nH]n2)n[nH]c2c(-c3ccc4ccccc4c3)cnn12`, the Ki [3] is reported as 2300 nM.

`O=c1c(-c2cc[nH]n2)n[nH]c2c(-c3cccc(F)c3)cnn12` showed an inhibition [10] of 23%, a Ki [3] of 152 nM and a Ki [4] of 100 nM. It also gave a Ki [9] of 1080 nM and a Ki [8] of 632 nM.

In the case of `O=c1c(-c2cc[nH]n2)n[nH]c2c(-c3ccc(F)cc3)cnn12`, the Ki [2] is reported as 1110 nM, the Ki [3] is reported as 88.3 nM and the Ki [4] is reported as 77.3 nM. The Ki [9] was 894 nM and the Ki [8] was 2420 nM.

With `O=c1c(-c2cc[nH]n2)c[nH]c2c(-c3cccs3)cnn12` the Ki [3] was 533 nM.

In the case of `O=c1c(-c2cc[nH]n2)c[nH]c2c(-c3ccc4ccccc4c3)cnn12`, the inhibition [1] is reported as 20%.

Compound `O=c1c(-c2cc[nH]n2)c[nH]c2c(Cc3ccccc3)cnn12` has a Ki [3] of 854 nM.

For `O=c1c(-c2cc[nH]n2)c[nH]c2c(-c3cccc(Cl)c3)cnn12`, the Ki [3] was 95.4 nM.

For `O=c1c(-n2cccn2)c[nH]c2c(-c3ccccc3)cnn12`, the inhibition [1] was 59.5%.

For `O=c1c(-n2ccnc2)c[nH]c2c(-c3cccs3)cnn12`, the inhibition [1] was 14.7%.

In the case of `O=c1c(-c2cc[nH]n2)n[nH]c2c(-c3cccnc3)cnn12`, the Ki [2] is reported as 1240 nM, the Ki [3] is reported as 73.6 nM and the Ki [4] is reported as 51 nM. For the same compound, the Ki [9] was 502 nM and the Ki [8] was 5000 nM.

With `O=c1c(-c2cc[nH]n2)n[nH]c2c(-c3cccc(Br)c3)cnn12` the Ki [2] was 1120 nM, the inhibition [11] was 50% and the Ki [3] was 38 nM. It also gave a Ki [4] of 21 nM and a Ki [9] of 570 nM.

Compound `O=c1c(-c2cc[nH]n2)c[nH]c2c(-c3cccnc3)cnn12` has a Ki [3] of 37.3 nM.

For `O=c1c(-c2cc[nH]n2)n[nH]c2c(-c3cccc(Cl)c3)cnn12`, the inhibition [10] was 40%, the Ki [3] was 74 nM and the Ki [4] was 65.6 nM. The Ki [9] was 660 nM and the Ki [8] was 990 nM.

For `O=c1c(-c2cc[nH]n2)n[nH]c2c(-c3ccccn3)cnn12`, the inhibition [10] was 32%, the Ki [3] was 10.5 nM and the Ki [4] was 9.1 nM. It also gave a Ki [8] of 12 nM.

`O=c1c(-c2cc[nH]n2)n[nH]c2c(-c3ccccc3)cnn12` showed a Ki [2] of 408 nM, a Ki [3] of 329 nM and a Ki [4] of 420 nM. The Ki [9] was 2090 nM and the Ki [8] was 3000 nM.
